The values below come from paper PMC7689752 (Clinical Pharmacology and Therapeutics, 2020).

On the set-up of data set [1]: species or system human. The conditions noted are these: prediction for high-clearance drugs, not studied here.
The nature of data set [2]: Integrated population pharmacokinetic model. It counts as in vivo, human. The conditions noted are these: for PNA on Cl: increase of clearance per hour of postnatal age, first 5 days of life; for Decrease of clearance during TH compared with normothermia: 33.5°C vs 36.5°C; for TEMP on Cl: reduction of clearance per °C of body temperature below 36.5°C.
Setting [3] is: interindividual variability in clearance, common eta.

As to `N=C1N[C@H]2[C@H](CS[C@H]2CCCCC(=O)O)N1` [2‐iminobiotin], the “Expected change of clearance with PNA” value in data set [1] is recorded as “The same prediction can be made”.
Consider `CC1(C)S[C@@H]2[C@H](NC(=O)[C@H](N)c3ccc(O)cc3)C(=O)N2[C@H]1C(=O)O` [Amoxicillin, amoxicillin], for which the “PNA on Cl” value in data set [2] turned out to be 1.23 %/h.
Turning to `CC1(C)S[C@@H]2[C@H](NC(=O)Cc3ccccc3)C(=O)N2[C@H]1C(=O)O` [Benzylpenicillin, benzylpenicillin], the “PNA on Cl” value in data set [2] is on record as 1.23 %/h. In addition, in data set [2] (setting [3]), the “Correlation in clearance with Amoxicillin” value was determined as 35.5%, the “Correlation in clearance with HMG” value worked out at 52.8%, the “Correlation in clearance with M6G” value came out at 27.4% and the “Correlation in clearance with Midazolam” value is recorded as 52.8%. For the same compound, in data set [2] (setting [3]), the “Correlation in clearance with Morphine” value amounted to 58.6% and the “Correlation in clearance with OHM” value is on record as 53.4%.
Turning to `CNC(C)C1CCC(N)C(OC2C(N)CC(N)C(OC3OCC(C)(O)C(NC)C3O)C2O)O1` (stereo not shown) [Gentamicin, gentamicin], the “PNA on Cl” value in data set [2] is on record as 1.23 %/h. In addition, in data set [2] (setting [3]), the “Correlation in clearance with Amoxicillin” value is recorded as 27.9%, the “Correlation in clearance with Benzylpenicillin” value came to 38.8%, the “Correlation in clearance with HMG” value stood at 41.4% and the “Correlation in clearance with M3G” value was found to be 23.4%. Besides, in data set [2] (setting [3]), the “Correlation in clearance with M6G” value stood at 21.5%, the “Correlation in clearance with Midazolam” value was 41.4%, the “Correlation in clearance with Morphine” value was 45.9% and the “Correlation in clearance with OHM” value is 41.8%.
Regarding `O=C(O)[C@H]1O[C@@H](OCc2ncc3n2-c2ccc(Cl)cc2C(c2ccccc2F)=NC3)[C@H](O)[C@@H](O)[C@@H]1O` [HMG, hydroxymidazolam glucuronide], the “PNA on Cl” value in data set [2] is reported as 1.23 %/h. Further, in data set [2] (setting [3]), the “Correlation in clearance with M3G” value stood at 31.9%, the “Correlation in clearance with M6G” value is 29.3%, the “Correlation in clearance with Midazolam” value is 56.4% and the “Correlation in clearance with Morphine” value is 62.6%. Moreover, in data set [2] (setting [3]), the “Correlation in clearance with OHM” value was determined as 57.0%.
As for `CN1CC[C@]23c4c5ccc(O[C@@H]6O[C@H](C(=O)O)[C@@H](O)[C@H](O)[C@H]6O)c4O[C@H]2[C@@H](O)C=C[C@H]3[C@H]1C5` [M3G, morphine‐3‐glucuronide], the “PNA on Cl” value in data set [2] was found to be 1.23 %/h. In addition, in data set [2] (setting [3]), the “Correlation in clearance with Midazolam” value turned out to be 31.9%, the “Correlation in clearance with Morphine” value was 35.4% and the “Correlation in clearance with OHM” value amounted to 32.2%.
As to `CN1CC[C@]23c4c5ccc(O)c4O[C@H]2[C@@H](O[C@@H]2O[C@H](C(=O)O)[C@@H](O)[C@H](O)[C@H]2O)C=C[C@H]3[C@H]1C5` [M6G, morphine‐6‐glucuronide], the “PNA on Cl” value in data set [2] came out at 1.23 %/h. Also, in data set [2] (setting [3]), the “Correlation in clearance with M3G” value was found to be 94.8%, the “Correlation in clearance with Midazolam” value is given as 29.3%, the “Correlation in clearance with Morphine” value came to 32.5% and the “Correlation in clearance with OHM” value is 29.6%.
As to `CCNCC(=O)Nc1c(C)cccc1C` [MEGX, monoethylglycinexylidide], the “PNA on Cl” value in data set [2] is 1.23 %/h.
Consider `Cc1ncc2n1-c1ccc(Cl)cc1C(c1ccccc1F)=NC2` [Midazolam, midazolam], for which, in data set [2], the “Decrease of clearance during TH compared with normothermia” value is given as 20.5%, the “PNA on Cl” value was found to be 0.540 %/h and the “TEMP on Cl” value turned out to be 6.83 %/°C. In addition, in data set [2] (setting [3]), the “Correlation in clearance with Morphine” value is given as 62.2%.
For the compound `OCc1ncc2n1-c1ccc(Cl)cc1C(c1ccccc1F)=NC2` [OHM, 1‐hydroxymidazolam], in data set [2], the “Decrease of clearance during TH compared with normothermia” value stood at 20.5%, the “PNA on Cl” value is 0.540 %/h and the “TEMP on Cl” value is 6.83 %/°C. Also, in data set [2] (setting [3]), the “Correlation in clearance with Midazolam” value stood at 57.0% and the “Correlation in clearance with Morphine” value amounted to 63.3%.
`CCC1(c2ccccc2)C(=O)NC(=O)NC1=O` [Phenobarbital, phenobarbital]: the “PNA as covariate on clearance (in words)” value in data set [2] (recovery of organ function) is recorded as “No effect of PNA was identified”.
`Oc1ncnc2[nH]ncc12` [allopurinol]: the “Expected change of clearance with PNA” value in data set [1] is recorded as “The same prediction can be made”.
As for `CC[C@@H](C(N)=O)N1CCCC1=O` [levetiracetam], the “Expected change of clearance with PNA” value in data set [1] was “clearance increases strongly with PNA”.
